Measured values published in paper PMC4467398, “Preclinical antitumor activity of ST7612AA1: a new oral thiol-based histone deacetylase (HDAC) inhibitor” (Oncotarget, 2014).

Tested on: DOHH2 and TMD8 DLBCL cells
Assay: Gene expression profiling (HumanHT-12 v4 BeadChip, limma), ST7612AA1 300 nM 8 hrs vs DMSO
Assay type: cell-based, human
Settings: 300 nM 8 hrs vs DMSO

CC(=O)SCCCCC[C@H](NC(=O)[C@H]1CCC(=O)N1)C(=O)Nc1ccccc1 [ST7612AA1]
log ratio POGK (ILMN_1756669): -8.84E-01 | log ratio POLR1C (ILMN_1746686): -8.40E-01 | log ratio PPP1R13B (ILMN_1748831): 6.43E-01 | log ratio PPP2R1A (ILMN_1810467): -5.99E-01 | log ratio PPRC1 (ILMN_1796210): -1.03E+00 | log ratio PRDM10 (ILMN_2352293): -8.83E-01 | log ratio PRDX2 (probe ILMN_1767766): 8.35E-01 | log ratio PRDX2 (probe ILMN_2382829): 7.41E-01 | log ratio PRKAR1B (ILMN_1674390): -8.76E-01 | log ratio PRKCB1 (ILMN_1806908): 6.12E-01 | log ratio PRMT3 (ILMN_1662964): -1.23E+00 | log ratio PSMB5 (ILMN_1744649): -9.34E-01 | log ratio PSMB10 (ILMN_1683026): -8.38E-01 | log ratio PSMG4 (ILMN_3224204): -5.99E-01 | log ratio PTGER4 (probe ILMN_1795930): 9.03E-01 | log ratio PTMS (ILMN_1721046): 6.73E-01 | log ratio PTPN7 (ILMN_1715214): -6.16E-01 | log ratio PTS (ILMN_2162328): -8.08E-01 | log ratio PTTG1 (probe ILMN_1753196): 6.92E-01 | log ratio PTTG1IP (ILMN_1802251): 6.45E-01 | log ratio PTTG1IP (ILMN_2128750): 6.16E-01 | log ratio PTTG3P (ILMN_2049021): 6.08E-01 | log ratio QTRTD1 (ILMN_2155516): -7.99E-01 | log ratio RAB8B (probe ILMN_2173004): 8.71E-01 | log ratio RAB11FIP2 (ILMN_2072541): -5.92E-01 | log ratio RAB11FIP5 (ILMN_1740604): 6.69E-01 | log ratio RAB24 (probe ILMN_2379718): 7.77E-01 | log ratio RABEPK (ILMN_1741957): -9.81E-01 | log ratio RABGAP1 (probe ILMN_2061950): 6.86E-01 | log ratio RAD9A (ILMN_1684183): 6.33E-01 | log ratio RAN (ILMN_1757384): -8.66E-01 | log ratio RAPGEF2 (probe ILMN_3247261): 8.54E-01 | log ratio RASAL1 (probe ILMN_1793517): 7.10E-01 | log ratio RASD2 (probe ILMN_2170209): 7.75E-01 | log ratio RASGRP3 (ILMN_1727045): -9.48E-01 | log ratio RASL10A (ILMN_1747673): 6.25E-01 | log ratio RASSF2 (ILMN_1709683): -8.05E-01 | log ratio RBM23 (ILMN_1780756): -8.92E-01 | log ratio RBM23 (ILMN_2363106): -9.17E-01 | log ratio RBM38 (ILMN_2404049): 6.27E-01 | log ratio RCAN1 (ILMN_2367239): 6.08E-01 | log ratio RCC2 (ILMN_1720124): -8.76E-01 | log ratio REEP2 (probe ILMN_1666057): 6.85E-01 | log ratio RFC1 (probe ILMN_2217935): 7.23E-01 | log ratio RGS19 (ILMN_1677085): -9.37E-01 | log ratio RHBDD2 (probe ILMN_1809437): 7.80E-01 | log ratio RHBDD2 (probe ILMN_2406410): 8.04E-01 | log ratio RHOBTB3 (probe ILMN_1744949): 8.25E-01 | log ratio RHOC (probe ILMN_1673305): 9.02E-01 | log ratio RIOK3 (ILMN_2404135): 5.99E-01 | log ratio RNASE4 (probe ILMN_1776602): 7.33E-01 | log ratio RND2 (probe ILMN_1736533): 7.06E-01 | log ratio RNF24 (probe ILMN_1717809): 7.24E-01 | log ratio RNF135 (ILMN_1700660): -6.19E-01 | log ratio RNFT2 (ILMN_3299905): 6.00E-01 | log ratio RPIA (ILMN_1714809): -9.23E-01 | log ratio RPL29 (ILMN_1737517): -1.05E+00 | log ratio RPL29 (ILMN_1771051): -1.03E+00 | log ratio RPL36A (ILMN_2112811): -6.12E-01 | log ratio RPP40 (ILMN_1810423): -1.07E+00 | log ratio RPRD2 (ILMN_3238889): -7.98E-01 | log ratio RPS6KA4 (ILMN_1756204): -7.98E-01 | log ratio RRBP1 (ILMN_2360784): 6.39E-01 | log ratio RRS1 (ILMN_1767658): -7.92E-01 | log ratio RTN2 (probe ILMN_1749115): 8.60E-01 | log ratio RTN3 (probe ILMN_2363065): 7.08E-01 | log ratio S100A4 (ILMN_1688780): 6.50E-01 | log ratio SALL2 (ILMN_1740842): 6.64E-01 | log ratio SBK1 (probe ILMN_1728298): 8.80E-01 | log ratio SCARNA11 (probe ILMN_3236010): 6.95E-01 | log ratio SCARNA13 (probe ILMN_3235325): 7.18E-01 | log ratio SCARNA14 (probe ILMN_3247636): 7.31E-01 | log ratio SCARNA23 (ILMN_3243966): 6.49E-01 | log ratio SCD5 (ILMN_2237428): 6.35E-01 | log ratio SDCBP (probe ILMN_2363586): 8.86E-01 | log ratio SDCBP (probe ILMN_2363591): 8.22E-01 | log ratio SDHA (ILMN_1744210): 6.20E-01 | log ratio SDHAP2 (probe ILMN_3248781): 7.07E-01 | log ratio SEMA4D (probe ILMN_1687533): 7.86E-01 | log ratio SEMA4F (probe ILMN_1805007): 7.51E-01 | log ratio SENP6 (ILMN_2054233): -8.91E-01 | log ratio SEPHS1 (ILMN_1673369): -1.31E+00 | log ratio SEPHS1 (ILMN_2176768): -1.36E+00 | log ratio SEPHS2 (ILMN_1687824): 6.78E-01 | log ratio SERPINB9 (probe ILMN_1742052): 7.55E-01 | log ratio SERPINI1 (probe ILMN_1814333): 7.79E-01 | log ratio SESN1 (ILMN_1800626): 5.92E-01 | log ratio SETMAR (ILMN_1682404): -7.84E-01 | log ratio SFRS7 (ILMN_1778836): -6.07E-01 | log ratio SFXN4 (ILMN_2363361): -9.20E-01 | log ratio SGK (probe ILMN_1702487): 8.82E-01 | log ratio SGSH (ILMN_2133675): 5.92E-01 | log ratio SH3GLB2 (probe ILMN_2158336): 6.85E-01 | log ratio SLC5A6 (ILMN_1741054): -9.72E-01 | log ratio SLC7A1 (ILMN_1683859): -6.20E-01 | log ratio SLC23A2 (probe ILMN_1746578): 7.82E-01 | log ratio SLC25A4 (probe ILMN_1681670): 8.53E-01 | log ratio SLC25A4 (probe ILMN_2211780): 7.98E-01 | log ratio SLC25A13 (ILMN_1668012): -8.15E-01 | log ratio SLC25A23 (probe ILMN_1679949): 7.04E-01 | log ratio SLC35F2 (ILMN_2075189): -9.03E-01 | log ratio SLC38A1 (ILMN_1769911): -9.30E-01 | log ratio SLC38A5 (ILMN_1695058): -1.13E+00 | log ratio SLC39A3 (ILMN_2234970): 6.58E-01 | log ratio SLC39A10 (ILMN_1656129): -5.93E-01 | log ratio SLC43A3 (ILMN_1658407): -9.67E-01 | log ratio SLC43A3 (ILMN_2330307): -8.92E-01 | log ratio SLC44A2 (probe ILMN_1771987): 7.92E-01 | log ratio SLC45A3 (probe ILMN_1726114): 7.11E-01 | log ratio SLFN11 (ILMN_2162860): 6.41E-01 | log ratio SLFN11 (probe ILMN_1752520): 7.62E-01 | log ratio SLTM (ILMN_1742224): -9.17E-01 | log ratio SLTM (ILMN_2395204): -8.02E-01 | log ratio SMG5 (ILMN_2126239): -9.35E-01 | log ratio SNAP23 (probe ILMN_1687519): 8.74E-01 | log ratio SNHG3-RCC1 (ILMN_1707493): -9.37E-01 | log ratio SNORA76 (ILMN_3237562): -5.92E-01 | log ratio SNORA80 (ILMN_3238554): 6.42E-01 | log ratio SNORD31 (probe ILMN_2072391): 7.85E-01 | log ratio SNORD65 (ILMN_3246353): -8.36E-01 | log ratio SNUPN (ILMN_1733932): -7.98E-01 | log ratio SNUPN (ILMN_2364535): -8.42E-01 | log ratio SNX29 (ILMN_1659761): 6.78E-01 | log ratio SORT1 (probe ILMN_1707077): 8.42E-01 | log ratio SPAG1 (ILMN_2367681): 5.96E-01 | log ratio SPAG7 (ILMN_1684446): -8.14E-01 | log ratio SPAG9 (ILMN_1799104): 6.26E-01 | log ratio SPAG9 (probe ILMN_2263718): 7.33E-01 | log ratio SPI1 (ILMN_2392043): -6.03E-01 | log ratio SPINT2 (probe ILMN_1800739): 8.11E-01 | log ratio SPRY1 (ILMN_2329914): 6.03E-01 | log ratio SREBF1 (probe ILMN_1663035): 7.22E-01 | log ratio SRGN (probe ILMN_1760347): 7.62E-01 | log ratio SRGN (probe ILMN_2169152): 7.60E-01 | log ratio SRP72 (ILMN_1683888): -5.90E-01 | log ratio SSPN (ILMN_1775486): -1.34E+00 | log ratio STAG2 (ILMN_1782609): -9.17E-01 | log ratio STARD10 (probe ILMN_1717052): 8.01E-01 | log ratio STK17B (probe ILMN_1798543): 7.91E-01 | log ratio STMN3 (probe ILMN_3244117): 9.01E-01 | log ratio STX3 (probe ILMN_1659544): 8.71E-01 | log ratio SUMO3 (ILMN_1725642): -9.81E-01 | log ratio SUSD3 (probe ILMN_1785570): 8.58E-01 | log ratio SYNGR1 (ILMN_1810875): 6.25E-01 | log ratio TACC1 (probe ILMN_1770084): 7.64E-01 | log ratio TACO1 (ILMN_1685112): -6.19E-01 | log ratio TADA1L (ILMN_1776487): -6.14E-01 | log ratio TANK (probe ILMN_1715069): 8.21E-01 | log ratio TBC1D7 (probe ILMN_1661622): 7.33E-01 | log ratio TBC1D16 (probe ILMN_1758457): 7.24E-01
